Data reported in US20260007601A1, “IONIZABLE CATIONIC LIPID COMPOUND AND COMPOSITION FOR DELIVERING NUCLEIC ACID AND USE THEREOF” (BEIJING YOUCAREKECHUANG PHARMACEUTICAL TECHNOLOGY CO., LTD., priority 2023, published 2026).
Values joined by “and” are separate entries in the source; they are usually repeats but may differ in a detail not shown here. Identical values can stand only once.

Legend:
[1] = Encapsulation rate, drug loading concentration and total RNA concentration detection (RiboGreen); assay type: physicochemical; conditions: for Drug loading concentration / Encapsulation rate / Total RNA concentration: LNP formulation of the named lipid; for encapsulation rate higher than that of ALC-0315 / encapsulation rate higher than that of HHMA / encapsulation rate higher than that of SM-102 / encapsulation rate higher than that of YK-009 / encapsulation rate higher than that of compound 21 / encapsulation rate higher than that of compound 23: difference of rates
293T cells = assay: Cell transfection experiment of LNP formulation of eGFP-mRNA (optimization of preparation conditions); assay type: cell-based; conditions: 0.5% to 15% tested
Protocol: The cationic lipid compound YK-202 synthesized in Example 1, DSPC (AVT (Shanghai) Pharmaceutical Technology Co., Ltd.), cholesterol (AVT (Shanghai) Pharmaceutical Technology Co., Ltd.) and DMG-PEG2000 were dissolved in ethanol at a molar ratio of 49:10:39.5:1.5 to prepare an ethanol lipid solution. The ethanol lipid solution was quickly added to a citrate buffer (pH=4 to 5) by ethanol injection method and vortexed for 30 seconds for use. eGFP-mRNA was diluted in a citrate buffer (pH=4 to 5) to obtain an mRNA aqueous solution. […]
Plating: The cells in the culture dish were digested, counted, plated in a 96-well plate at 10,000 cells per well, or in a 12-well plate at 150,000 cells per well, and cultured overnight until the cells adhered to the wall.
Cell transfection experiment: The LNP formulation containing 1.5 μg of eGFP-mRNA prepared in Example 2 (the cationic lipid in the carrier was YK-202) and Lipofectamin 3000 formulation of eGFP-mRNA were added to the cell culture medium in a 12-well plate, and the cells were cultured for 24 hours. The transfection efficiency of different samples was investigated by fluorescence microscopy based on the fluorescence intensity.

CCCCCCCCCCCOC(=O)CCCCCN(CCCCCCCC(=O)OC(CCCCCCCC)CCCCCCCC)CCN(C)CCO [YK-201, heptadecan-9-yl-8-(2-((2-hydroxyethyl)(methylamino))ethyl)(6-oxo-6-((undecanyloxy)hexyl)amino)octanoate]
drug loading concentration, times that of ALC-0315 [1]: 1.55 times | drug loading concentration, times that of HHMA [1]: 1.32 times | drug loading concentration, times that of SM-102 [1]: 1.58 times | drug loading concentration, times that of YK-009 [1]: 1.50 times | drug loading concentration, times that of compound 21 [1]: 1.78 times | drug loading concentration, times that of compound 23 [1]: 1.95 times | total RNA concentration, times that of ALC-0315 [1]: 1.21 times | total RNA concentration, times that of HHMA [1]: 1.19 times | total RNA concentration, times that of SM-102 [1]: 1.28 times | total RNA concentration, times that of YK-009 [1]: 1.17 times | total RNA concentration, times that of compound 21 [1]: 1.47 times and 1.5 times | total RNA concentration, times that of compound 23 [1]: 1.39 times | Drug loading concentration [1]: 40.32 µg/mL | Encapsulation rate [1]: 89.5% | Total RNA concentration [1]: 45.07 µg/mL | encapsulation rate higher than that of ALC-0315 [1]: 26.70% | encapsulation rate higher than that of HHMA [1]: 29.00% | encapsulation rate higher than that of SM-102 [1]: 27.20% | encapsulation rate higher than that of YK-009 [1]: 26.50% | encapsulation rate higher than that of compound 21 [1]: 31.70% | encapsulation rate higher than that of compound 23 [1]: 34.30%

CCCCCCCCC(CCCCCCCC)COC(=O)CCCCCN(CCCCCC(=O)OCC(CCCCCCCC)CCCCCCCC)CCN(C)CCO [YK-209, bis(2-octyldecyl)-6,6′-((2-(2-hydroxyethyl(methyl)amino)ethyl)azadialkyl)dihexanoate]
drug loading concentration, times that of ALC-0315 [1]: 1.60 times | drug loading concentration, times that of HHMA [1]: 1.36 times | drug loading concentration, times that of SM-102 [1]: 1.64 times | drug loading concentration, times that of YK-009 [1]: 1.55 times | drug loading concentration, times that of compound 21 [1]: 1.85 times | drug loading concentration, times that of compound 23 [1]: 2.02 times and 2 times | total RNA concentration, times that of ALC-0315 [1]: 1.17 times | total RNA concentration, times that of HHMA [1]: 1.15 times | total RNA concentration, times that of SM-102 [1]: 1.23 times | total RNA concentration, times that of YK-009 [1]: 1.12 times | total RNA concentration, times that of compound 21 [1]: 1.41 times | total RNA concentration, times that of compound 23 [1]: 1.34 times | Drug loading concentration [1]: 41.76 µg/mL | Encapsulation rate [1]: 96.2% | Total RNA concentration [1]: 43.42 µg/mL | encapsulation rate higher than that of ALC-0315 [1]: 33.40% | encapsulation rate higher than that of HHMA [1]: 35.70% | encapsulation rate higher than that of SM-102 [1]: 33.90% | encapsulation rate higher than that of YK-009 [1]: 33.20% | encapsulation rate higher than that of compound 21 [1]: 38.40% | encapsulation rate higher than that of compound 23 [1]: 41%

CCCCCCCCCCCOC(=O)CCCCCN(CCCCCCCC(=O)OCC(CCCCCCCC)CCCCCCCC)CCN(C)CCO [YK-202]
drug loading concentration, times that of ALC-0315 [1]: 1.42 times | drug loading concentration, times that of HHMA [1]: 1.21 times | drug loading concentration, times that of SM-102 [1]: 1.46 times | drug loading concentration, times that of YK-009 [1]: 1.38 times | drug loading concentration, times that of compound 21 [1]: 1.64 times | drug loading concentration, times that of compound 23 [1]: 1.79 times | total RNA concentration, times that of ALC-0315 [1]: 1.16 times | total RNA concentration, times that of HHMA [1]: 1.14 times | total RNA concentration, times that of SM-102 [1]: 1.22 times | total RNA concentration, times that of YK-009 [1]: 1.11 times | total RNA concentration, times that of compound 21 [1]: 1.40 times | total RNA concentration, times that of compound 23 [1]: 1.32 times | Drug loading concentration [1]: 37.08 µg/mL | Encapsulation rate [1]: 86.3% | Total RNA concentration [1]: 42.98 µg/mL | encapsulation rate higher than that of ALC-0315 [1]: 23.50% | encapsulation rate higher than that of HHMA [1]: 25.80% | encapsulation rate higher than that of SM-102 [1]: 24.00% | encapsulation rate higher than that of YK-009 [1]: 23.30% | encapsulation rate higher than that of compound 21 [1]: 28.50% | encapsulation rate higher than that of compound 23 [1]: 31.10% | molar ratio of polymer-conjugated lipid DMG-PEG2000 to carrier with the highest transfection efficiency (293T cells): 1.5%
